Test results from ChEMBL document CHEMBL1201862, “PubChem BioAssay data set” (2004).
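Five concentrations, 48 hours, 96-well plates. GI50 = concentration required for 50% inhibition of growth.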 Active and inactive are the calls of the source. Rule as the data show it: active = GI50 up to about 1.1 µM and inactive = higher.

Legend:
Test in all cases: inhibition of tumour cell growth, NCI panel, 48 h
786-0 = system: 786-0
A498 = system: A498
A549 = system: A549
ACHN = system: ACHN
BT-549 = system: BT-549
CAKI-1 = system: CAKI-1
CCRF-CEM = system: CCRF-CEM
COLO 205 = system: COLO 205
DU-145 = system: DU-145
EKVX = system: EKVX
HCC 2998 = system: HCC 2998
HCT-116 = system: HCT-116
HCT-15 = system: HCT-15
HL-60 = system: HL-60
HOP-62 = system: HOP-62
HOP-92 = system: HOP-92
HT-29 = system: HT-29
Hs-578T = system: Hs-578T
IGROV-1 = system: IGROV-1
K562 = system: K562
KM12 = system: KM12
LOX IMVI = system: LOX IMVI
M14 = system: M14
MCF7 = system: MCF7
MDA-MB-231 = system: MDA-MB-231
MDA-MB-435 = system: MDA-MB-435
MDA-N = system: MDA-N
MOLT-4 = system: MOLT-4
Malme-3M = system: Malme-3M
NCI-H226 = system: NCI-H226
NCI-H23 = system: NCI-H23
NCI-H460 = system: NCI-H460
NCI-H522 = system: NCI-H522
NCI/ADR-RES = system: NCI/ADR-RES
OVCAR-3 = system: OVCAR-3
OVCAR-4 = system: OVCAR-4
OVCAR-5 = system: OVCAR-5
OVCAR-8 = system: OVCAR-8
PC-3 = system: PC-3
RPMI-8226 = system: RPMI-8226
SF-268 = system: SF-268
SF-295 = system: SF-295
SF-539 = system: SF-539
SK-MEL-28 = system: SK-MEL-28
SK-MEL-2 = system: SK-MEL-2
SK-MEL-5 = system: SK-MEL-5
SK-OV-3 = system: SK-OV-3
SN12C = system: SN12C
SNB-19 = system: SNB-19
SNB-75 = system: SNB-75
SR = system: SR
SW-620 = system: SW-620
T47D = system: T47D
TK-10 = system: TK-10
U-251 = system: U-251
UACC-257 = system: UACC-257
UACC-62 = system: UACC-62
UO-31 = system: UO-31

Cc1ccc2c(c1)-c1c(C#N)c(N)nc(-c3ccc(Cl)cc3)c1CCS2(=O)=O
GI50 (786-0): 6.19 µM (inactive) | GI50 (A498): 17.2 µM (inactive) | GI50 (A549): 5.31 µM (inactive) | GI50 (ACHN): 8.77 µM (inactive) | GI50 (BT-549): 13.6 µM (inactive) | GI50 (CAKI-1): 5.97 µM (inactive) | GI50 (CCRF-CEM): 1.12 µM (active) | GI50 (COLO 205): 4.55 µM (inactive) | GI50 (DU-145): 17.2 µM (inactive) | GI50 (EKVX): 20.8 µM (inactive) | GI50 (HCC 2998): 6.7 µM (inactive) | GI50 (HCT-116): 4.45 µM (inactive) | GI50 (HCT-15): 4.6 µM | GI50 (HL-60): 0.207 µM (active) | GI50 (HOP-62): 6.12 µM (inactive) | GI50 (HOP-92): 44.5 µM (inactive) | GI50 (HT-29): 3.61 µM (inactive) | GI50 (Hs-578T): 6.15 µM (inactive) | GI50 (IGROV-1): 5.43 µM (inactive) | GI50 (K562): 2.8 µM (inactive) | GI50 (KM12): 3.48 µM (inactive) | GI50 (LOX IMVI): 10.1 µM (inactive) | GI50 (M14): 5.21 µM (inactive) | GI50 (MCF7): 5.37 µM (inactive) | GI50 (MDA-MB-231): 12.3 µM (inactive) | GI50 (MDA-MB-435): 2.52 µM (inactive) | GI50 (MDA-N): 1.65 µM (inactive) | GI50 (MOLT-4): 4.99 µM (inactive) | GI50 (Malme-3M): 5.07 µM (inactive) | GI50 (NCI-H226): 28.6 µM (inactive) | GI50 (NCI-H23): 7.23 µM (inactive) | GI50 (NCI-H460): 3.85 µM (inactive) | GI50 (NCI-H522): 2.14 µM (inactive) | GI50 (NCI/ADR-RES): 4.48 µM (inactive) | GI50 (OVCAR-3): 3.94 µM (inactive) | GI50 (OVCAR-4): > 83 µM (inactive) | GI50 (OVCAR-5): 49.9 µM (inactive) | GI50 (OVCAR-8): 14.8 µM (inactive) | GI50 (PC-3): 5.48 µM (inactive) | GI50 (RPMI-8226): 3.66 µM (inactive) | GI50 (SF-268): 20.1 µM (inactive) | GI50 (SF-295): 4.21 µM (inactive) | GI50 (SF-539): 3.77 µM (inactive) | GI50 (SK-MEL-28): 20.6 µM (inactive) | GI50 (SK-MEL-2): 8.67 µM (inactive) | GI50 (SK-MEL-5): 4.32 µM (inactive) | GI50 (SK-OV-3): 8.38 µM (inactive) | GI50 (SN12C): 10.9 µM (inactive) | GI50 (SNB-19): 13.2 µM (inactive) | GI50 (SNB-75): 3.21 µM (inactive) | GI50 (SR): 1.87 µM (inactive) | GI50 (SW-620): 5.81 µM (inactive) | GI50 (T47D): 17.3 µM (inactive) | GI50 (TK-10): 43.6 µM (inactive) | GI50 (U-251): 7.14 µM (inactive) | GI50 (UACC-257): 5.24 µM (inactive) | GI50 (UACC-62): 4.37 µM (inactive) | GI50 (UO-31): 5.74 µM (inactive)

Cc1ccc(S(=O)(=O)NN=C2C(C)CC(C(C)(C)C)CC2C)cc1 (stereo not drawn)
GI50 (786-0): 17.4 µM (inactive) | GI50 (A498): 17.4 µM (inactive) | GI50 (A549): 17.9 µM (inactive) | GI50 (BT-549): 17.9 µM (inactive) | GI50 (CAKI-1): 16.9 µM (inactive) | GI50 (CCRF-CEM): 20 µM (inactive) | GI50 (COLO 205): 18.4 µM (inactive) | GI50 (DU-145): 19.7 µM (inactive) | GI50 (HCC 2998): 17.7 µM (inactive) | GI50 (HCT-116): 17.5 µM (inactive) | GI50 (HCT-15): 18.2 µM | GI50 (HL-60): 25.9 µM (inactive) | GI50 (HOP-62): 16.4 µM (inactive) | GI50 (HOP-92): 15.5 µM (inactive) | GI50 (HT-29): 18.5 µM (inactive) | GI50 (Hs-578T): 37.2 µM (inactive) | GI50 (IGROV-1): 38.9 µM (inactive) | GI50 (K562): 21 µM (inactive) | GI50 (KM12): 17.6 µM (inactive) | GI50 (LOX IMVI): 17.9 µM (inactive) | GI50 (M14): 13.5 µM (inactive) | GI50 (MCF7): 21.1 µM (inactive) | GI50 (MDA-MB-231): 28.6 µM (inactive) | GI50 (MDA-MB-435): 20 µM (inactive) | GI50 (MDA-N): 19.3 µM (inactive) | GI50 (MOLT-4): 20.6 µM (inactive) | GI50 (Malme-3M): 17.8 µM (inactive) | GI50 (NCI-H226): 19 µM (inactive) | GI50 (NCI-H23): 24.4 µM (inactive) | GI50 (NCI-H460): 18.8 µM (inactive) | GI50 (NCI-H522): 18.6 µM (inactive) | GI50 (NCI/ADR-RES): 31.6 µM (inactive) | GI50 (OVCAR-3): 16.6 µM (inactive) | GI50 (OVCAR-4): 14.9 µM (inactive) | GI50 (OVCAR-5): 17.5 µM (inactive) | GI50 (OVCAR-8): 24.1 µM (inactive) | GI50 (PC-3): 18.8 µM (inactive) | GI50 (RPMI-8226): 23.2 µM (inactive) | GI50 (SF-295): 18.1 µM (inactive) | GI50 (SF-539): 95.1 µM (inactive) | GI50 (SK-MEL-28): 20 µM (inactive) | GI50 (SK-MEL-2): 16.2 µM (inactive) | GI50 (SK-MEL-5): 17.3 µM (inactive) | GI50 (SK-OV-3): 24.4 µM (inactive) | GI50 (SN12C): 18.4 µM (inactive) | GI50 (SNB-19): 26.3 µM (inactive) | GI50 (SNB-75): 20.4 µM (inactive) | GI50 (SR): 26.8 µM (inactive) | GI50 (SW-620): 20 µM (inactive) | GI50 (T47D): 21.7 µM (inactive) | GI50 (TK-10): 26.4 µM (inactive) | GI50 (U-251): 17.7 µM (inactive) | GI50 (UACC-257): 19.1 µM (inactive) | GI50 (UACC-62): 32.3 µM (inactive) | GI50 (UO-31): 21 µM (inactive)
